# Reference: US7354593B2, “Coccidial vaccine and methods of making and using same” (Merial Limited, priority 2002, dated 2008)
# Like-named read-outs stand apart in the source and are kept apart here.
# Experiments:
# Salmonella = experiment: Killing of Salmonella by oocyst processing agents
# Mycoplasma = experiment: Killing of Mycoplasma by oocyst processing agent
# [1] = Floor pen phase: live weight, feed conversion and total mortality during 7-week grow-out; type: in vivo, Gallus domesticus (chicken)
# Excerpt: The timeline was as follows. On Day 0, birds were weighed by pen. The birds in Groups 1 and 2 were vaccinated as described in Table 9, with 1300 birds per vaccine regime, divided between 2 pens, one in each half of the house. The birds in Group 3 were started on Salinomycin, 60 g/ton, divided as described for Groups 1 and 2. The pens were stocked. Extra hatchmates were retained in wire cages as unvaccinated chicks.
# On Day 21, the feed from starter to grower was changed for all birds. Salinomycin was continued in Group 3.
# On Day 42, all groups were changed to unmedicated finisher feed and the feed back was weighed.
# On Day 49, all birds and feed were weighed and the trial was terminated.
# Vaccination/Medication. Three treatments of birds identified as Groups 1-3 in Table 9, were replicated in half houses, three pens per house, 650 birds per pen, for a total of 1300 birds per treatment. Birds in […] were vaccinated as described in Table 9. An additional treatment group (4) was maintained separately in clean cages as unvaccinated, untreated controls, for use in the challenge test only.
# Treatment Groups 1, 2, and 4 were given non-medicated feed. Treatment Group 3 was given Salinomycin (60 g/ton) beginning on Day 1 through Day 42. The birds in Group 3 to be challenged were given non-medicated feed after the move to the challenge cages. Starter feed was given until 21 days, grower until 42 days and finisher until 49 days. The feed issued was recorded, and any remaining unconsumed feed was weighed back at the time of feed changes and at termination.
# (§1) Observations. Birds were weighed by pen at 0 and 28 days and by pen and sex at 49 days. Dead birds were collected twice daily and necropsy performed to determine cause of death.
# (§2) Criteria for Measurement. The primary variables for the floor pen phase were live weights at 28 and 49 days and feed conversion at 49 days. For the challenge phase, primary variables were weight gain six days after challenge, and lesion scores of the upper, mid and cecal gut sections, also at six days after challenge.
# Clostridium sordelli = type: in vivo, Gallus domesticus (chicken); settings: necrotic enteritis mortality
# Description: as §1
# Concurrent Medications and Management of Adverse Events. The Coccivac vaccinated birds became sick 14 days into the trial. […] The responsible agent was identified as Clostridium sordelli. All birds in the trial were administered Penicillin G to decrease contamination, and the affects thereof, between pens and to eliminate any difference in treatments among the groups that could skew the coccidiosis results.
# It is important to note that the Coccivac vaccinated birds became infected with Clostridium sordelli. Clostridial disease has been linked to infection with coccidiosis in the field. Even though the infection did spread to the other treatments, the Coccivac vaccinated birds were the most affected showing 11.77% mortality.
# [2] = system: E. acervulina, E. mitis, E. tenella, E. maxima; experiment: Challenge phase: polyvalent oral challenge with virulent Eimeria, lesion scores and weight gain six days after challenge; type: in vivo, Gallus domesticus (chicken)
# Excerpt: Six days following challenge, the vaccinates and controls from each of the Groups in Table 4 were sacrificed, weighed, and the intestines and ceca were examined and scored for lesions. Scoring was in accordance with the Johnson and Reid cocciodial scoring system, as described in Experimental Parisitology, Vol. 28, p 30-36, 1970, the disclosure of which is incorporated by reference in its entirety, as shown in Table 5.
# On Day 28, the birds to be challenged were moved to wire cages. Salinomycin was discontinued in Group 3 birds to be challenged. All birds and feed we weighed. Fresh fecal samples were collected from the litter from each group in the large pens, 20 samples per pen. Oocysts by quantified by species.
# On Day 29, birds in the cages were challenged using the number of oocysts described in Table 7.
# On Day 35, the challenge birds were terminated, the lesions were scored, and weight gains were taken.
# Challenge. At Day 28, 3 reps of 10 birds from each pen (total of 60 per treatment) were weighed and moved to the battery cages for challenge with field strains of Eimeria (corresponding to the species used in the vaccine). All birds were given non-medicated feed in the cages. On Day 29, birds of Groups 1-4 were challenged and then terminated on Day 35. Lesion scores and weights were recorded.
# as §2
compound,measurement,setting,value
OCl [sodium hypochlorite],killing of Salmonella,Salmonella,effectively killed
same,killing of Mycoplasma,Mycoplasma,effectively killed
"CC[C@@H](C(=O)[C@@H](C)[C@@H](O)[C@H](C)[C@@H]1O[C@@H]([C@@H](CC)C(=O)O)CC[C@@H]1C)[C@H]1O[C@]2(C=C[C@@H](O)[C@]3(CC[C@@](C)([C@H]4CC[C@](O)(CC)[C@H](C)O4)O3)O2)[C@H](C)C[C@@H]1C [SALINOMYCIN, Salinomycin]",% All Mortality,[1]; 28 Day Summary,3.76%
same,Feed Conversion,[1]; 28 Day Summary,1.383
same,Avg Live Wt,"[1]; 28 Day Summary, commercial birds, floor pens",1.45
same,% Mortality Total,[1]; 49 Day Summary,5.38%
same,Avg Live Female Wt,[1]; 49 Day Summary,2.63
same,Avg Live Male Wt,[1]; 49 Day Summary,3.17
same,Avg Total Live Wt,[1]; 49 Day Summary,2.90
same,Feed Conversion,[1]; 49 Day Summary,1.86
same,% Mortality NE,Clostridium sordelli; 28 Day Summary,0.46%
same,% Mortality NE,Clostridium sordelli; 49 Day Summary,0.53%
same,Initial Wt.,"[2]; Day 28, before challenge, 60 birds challenged per treatment",1435.47ab
same,Final Wt.,"[2]; Day 35, six days after challenge",1488.97b
same,% Mortality Due to Coccidiosis,[2]; after challenge,0%
same,Ceca Lesion Score,"[2]; ceca, six days after challenge, Johnson and Reid score 0 to +4",3.25a
same,Middle Lesion Score,"[2]; mid gut, six days after challenge, Johnson and Reid score 0 to +4",2.90b
same,6 Day Wt. Gain,[2]; six days after challenge,53.50 days
same,ATLS (average total lesion score),[2]; six days after challenge,2.88a
same,TLS (total lesion score),[2]; six days after challenge,8.65a
same,Upper Lesion Score,"[2]; upper intestine, six days after challenge, Johnson and Reid score 0 to +4",2.50a
[K+].[K+].[O]=[Cr](=[O])([O-])[O][Cr](=[O])(=[O])[O-] [potassium dichromate],killing of Salmonella,Salmonella,effectively killed
